Results from ChEMBL document CHEMBL3885861, “Open TG-GATES”.

Organism: Rattus norvegicus
Test: Open TG-GATES - Regimen: Single
Assay type: toxicity, organism-based, Sprague-Dawley
Design: regimen Single, gender Male, age 6 weeks
Conditions: in vivo, po, 30 mg/kg, route gavage, dose level Low; for APTT / Bas / Eos / Fbg / Hb / Ht / Lym / MCH / MCHC / MCV / Mono / Neu / PT / Plat / RBC / Ret / WBC: tissue Blood; for ALP / ALT / AST / BUN / CRE / DBIL / GLC / IP / K / Na / PL / RALB / TBIL / TC / TG / TP / gamma-GTP: tissue Plasma

Structure (SMILES): NS(=O)(=O)c1cc(C(=O)O)c(NCc2ccco2)cc1Cl [FUROSEMIDE]
- TERMINAL_BW (3 h): 201.3 g
- APTT (3 h): 18.1 s
- Bas (3 h): 0%
- Eos (3 h): 1%
- Fbg (3 h): 278.8 mg/dL
- Hb (3 h): 14 g/dL
- Ht (3 h): 41.6%
- Lym (3 h): 74.2%
- MCH (3 h): 21.2 pg
- MCHC (3 h): 33.6%
- MCV (3 h): 63.2 fL
- Mono (3 h): 4.4%
- Neu (3 h): 19.6%
- PT (3 h): 15.4 s
- Plat (3 h): 117.4 x10_4/uL
- RBC (3 h): 658.6 x10_4/ul
- Ret (3 h): 7.9%
- WBC (3 h): 68.2 x10_2/uL
- ALP (3 h): 1468.8 IU/L
- ALT (3 h): 46 IU/L
- AST (3 h): 77 IU/L
- BUN (3 h): 15.4 mg/dL
- CRE (3 h): 0.2 mg/dL
- DBIL (3 h): 0.01 mg/dL
- GLC (3 h): 179.2 mg/dL
- IP (3 h): 10.5 mg/dL
- K (3 h): 3.7 meq/L
- Na (3 h): 141.6 meq/L
- PL (3 h): 149.8 mg/dL
- RALB (3 h): 2.8 g/dL
- TBIL (3 h): 0.058 mg/dL
- TC (3 h): 79.4 mg/dL
- TG (3 h): 63.6 mg/dL
- TP (3 h): 5.9 g/dL
- gamma-GTP (3 h): 1 IU/L
- TERMINAL_BW (6 h): 199.3 g
- APTT (6 h): 17.5 s
- Bas (6 h): 0%
- Eos (6 h): 1%
- Fbg (6 h): 324.6 mg/dL
- Hb (6 h): 14.1 g/dL
- Ht (6 h): 41.9%
- Lym (6 h): 74.4%
- MCH (6 h): 21.6 pg
- MCHC (6 h): 33.7%
- MCV (6 h): 64 fL
- Mono (6 h): 3.8%
- Neu (6 h): 20%
- PT (6 h): 15.2 s
- Plat (6 h): 124.8 x10_4/uL
- RBC (6 h): 655.4 x10_4/ul
- Ret (6 h): 7.9%
- WBC (6 h): 92.3 x10_2/uL
- ALP (6 h): 1320.8 IU/L
- ALT (6 h): 45.6 IU/L
- AST (6 h): 74.6 IU/L
- BUN (6 h): 17.8 mg/dL
- CRE (6 h): 0.2 mg/dL
- DBIL (6 h): 0.016 mg/dL
- GLC (6 h): 181.2 mg/dL
- IP (6 h): 10.4 mg/dL
- K (6 h): 3.6 meq/L
- Na (6 h): 141 meq/L
- PL (6 h): 156.2 mg/dL
- RALB (6 h): 2.9 g/dL
- TBIL (6 h): 0.074 mg/dL
- TC (6 h): 88.2 mg/dL
- TG (6 h): 44.2 mg/dL
- TP (6 h): 6.1 g/dL
- gamma-GTP (6 h): 1 IU/L
- TERMINAL_BW (9 h): 199.5 g
- APTT (9 h): 17.3 s
- Bas (9 h): 0%
- Eos (9 h): 1%
- Fbg (9 h): 310.2 mg/dL
- Hb (9 h): 14 g/dL
- Ht (9 h): 41.4%
- Lym (9 h): 73%
- MCH (9 h): 21.5 pg
- MCHC (9 h): 33.8%
- MCV (9 h): 63.8 fL
- Mono (9 h): 3.2%
- Neu (9 h): 22%
- PT (9 h): 15.4 s
- Plat (9 h): 118.1 x10_4/uL
- RBC (9 h): 649.2 x10_4/ul
- Ret (9 h): 8.1%
- WBC (9 h): 89.5 x10_2/uL
- ALP (9 h): 1152.2 IU/L
- ALT (9 h): 38.6 IU/L
- AST (9 h): 68.6 IU/L
- BUN (9 h): 16.4 mg/dL
- CRE (9 h): 0.2 mg/dL
- DBIL (9 h): 0.01 mg/dL
- GLC (9 h): 181.4 mg/dL
- IP (9 h): 10.7 mg/dL
- K (9 h): 3.7 meq/L
- Na (9 h): 143 meq/L
- PL (9 h): 147.4 mg/dL
- RALB (9 h): 2.7 g/dL
- TBIL (9 h): 0.072 mg/dL
- TC (9 h): 81 mg/dL
- TG (9 h): 38 mg/dL
- TP (9 h): 5.8 g/dL
- gamma-GTP (9 h): 0.8 IU/L
- TERMINAL_BW (24 h): 224.4 g
- APTT (24 h): 17.3 s
- Bas (24 h): 0.2%
- Eos (24 h): 1%
- Fbg (24 h): 267 mg/dL
- Hb (24 h): 13.3 g/dL
- Ht (24 h): 39.7%
- Lym (24 h): 78.6%
- MCH (24 h): 21.8 pg
- MCHC (24 h): 33.5%
- MCV (24 h): 65.1 fL
- Mono (24 h): 2.8%
- Neu (24 h): 16.4%
- PT (24 h): 15.8 s
- Plat (24 h): 118.7 x10_4/uL
- RBC (24 h): 610 x10_4/ul
- Ret (24 h): 7.4%
- WBC (24 h): 96 x10_2/uL
- ALP (24 h): 1538.8 IU/L
- ALT (24 h): 44.6 IU/L
- AST (24 h): 73.6 IU/L
- BUN (24 h): 16 mg/dL
- CRE (24 h): 0.2 mg/dL
- DBIL (24 h): 0.01 mg/dL
- GLC (24 h): 183.4 mg/dL
- IP (24 h): 7.7 mg/dL
- K (24 h): 4 meq/L
- Na (24 h): 142.6 meq/L
- PL (24 h): 147.8 mg/dL
- RALB (24 h): 2.6 g/dL
- TBIL (24 h): 0.052 mg/dL
- TC (24 h): 81.8 mg/dL
- TG (24 h): 60.8 mg/dL
- TP (24 h): 5.6 g/dL
- gamma-GTP (24 h): 0.8 IU/L
